Data on seven compounds can be found in patent US9340590B2 (priority 2011, dated 2016).

Where two headings read alike, the source gives them in different places. Positions of bridges follow the written chain, without caps; N, C: chain ends. Non-standard residues stand in square brackets, D forms with d. Residues, ends and D or L forms follow the SMILES beside them. Cit = NC(=O)NCCC[C@H](N)C(=O)O

What all share (assay): cell-based
In one test the target is hNav1.7 (Homo sapiens, UniProt Q15858). The test is classed as cell-based.
A further test deals with hNav1.5 (Homo sapiens, UniProt Q14524). To be noted: IonWorks Quattro, read-out: IWQ Use Nav1.5.
The next test has as its target hNav1.3 (Homo sapiens, UniProt Q9NY46). To be noted: IonWorks Quattro, read-out: IWQ Use Nav1.3.
[1] abbreviates: Table 22, IonWorks Quattro, use, […], read-out: IWQ Use Nav1.7.
[2] abbreviates: IonWorks Quattro, use-dependent block, hNav1.7, read-out: IWQ Use Nav1.7.

hNav1.3, sequence (Q9NY46 whole entry, looked up): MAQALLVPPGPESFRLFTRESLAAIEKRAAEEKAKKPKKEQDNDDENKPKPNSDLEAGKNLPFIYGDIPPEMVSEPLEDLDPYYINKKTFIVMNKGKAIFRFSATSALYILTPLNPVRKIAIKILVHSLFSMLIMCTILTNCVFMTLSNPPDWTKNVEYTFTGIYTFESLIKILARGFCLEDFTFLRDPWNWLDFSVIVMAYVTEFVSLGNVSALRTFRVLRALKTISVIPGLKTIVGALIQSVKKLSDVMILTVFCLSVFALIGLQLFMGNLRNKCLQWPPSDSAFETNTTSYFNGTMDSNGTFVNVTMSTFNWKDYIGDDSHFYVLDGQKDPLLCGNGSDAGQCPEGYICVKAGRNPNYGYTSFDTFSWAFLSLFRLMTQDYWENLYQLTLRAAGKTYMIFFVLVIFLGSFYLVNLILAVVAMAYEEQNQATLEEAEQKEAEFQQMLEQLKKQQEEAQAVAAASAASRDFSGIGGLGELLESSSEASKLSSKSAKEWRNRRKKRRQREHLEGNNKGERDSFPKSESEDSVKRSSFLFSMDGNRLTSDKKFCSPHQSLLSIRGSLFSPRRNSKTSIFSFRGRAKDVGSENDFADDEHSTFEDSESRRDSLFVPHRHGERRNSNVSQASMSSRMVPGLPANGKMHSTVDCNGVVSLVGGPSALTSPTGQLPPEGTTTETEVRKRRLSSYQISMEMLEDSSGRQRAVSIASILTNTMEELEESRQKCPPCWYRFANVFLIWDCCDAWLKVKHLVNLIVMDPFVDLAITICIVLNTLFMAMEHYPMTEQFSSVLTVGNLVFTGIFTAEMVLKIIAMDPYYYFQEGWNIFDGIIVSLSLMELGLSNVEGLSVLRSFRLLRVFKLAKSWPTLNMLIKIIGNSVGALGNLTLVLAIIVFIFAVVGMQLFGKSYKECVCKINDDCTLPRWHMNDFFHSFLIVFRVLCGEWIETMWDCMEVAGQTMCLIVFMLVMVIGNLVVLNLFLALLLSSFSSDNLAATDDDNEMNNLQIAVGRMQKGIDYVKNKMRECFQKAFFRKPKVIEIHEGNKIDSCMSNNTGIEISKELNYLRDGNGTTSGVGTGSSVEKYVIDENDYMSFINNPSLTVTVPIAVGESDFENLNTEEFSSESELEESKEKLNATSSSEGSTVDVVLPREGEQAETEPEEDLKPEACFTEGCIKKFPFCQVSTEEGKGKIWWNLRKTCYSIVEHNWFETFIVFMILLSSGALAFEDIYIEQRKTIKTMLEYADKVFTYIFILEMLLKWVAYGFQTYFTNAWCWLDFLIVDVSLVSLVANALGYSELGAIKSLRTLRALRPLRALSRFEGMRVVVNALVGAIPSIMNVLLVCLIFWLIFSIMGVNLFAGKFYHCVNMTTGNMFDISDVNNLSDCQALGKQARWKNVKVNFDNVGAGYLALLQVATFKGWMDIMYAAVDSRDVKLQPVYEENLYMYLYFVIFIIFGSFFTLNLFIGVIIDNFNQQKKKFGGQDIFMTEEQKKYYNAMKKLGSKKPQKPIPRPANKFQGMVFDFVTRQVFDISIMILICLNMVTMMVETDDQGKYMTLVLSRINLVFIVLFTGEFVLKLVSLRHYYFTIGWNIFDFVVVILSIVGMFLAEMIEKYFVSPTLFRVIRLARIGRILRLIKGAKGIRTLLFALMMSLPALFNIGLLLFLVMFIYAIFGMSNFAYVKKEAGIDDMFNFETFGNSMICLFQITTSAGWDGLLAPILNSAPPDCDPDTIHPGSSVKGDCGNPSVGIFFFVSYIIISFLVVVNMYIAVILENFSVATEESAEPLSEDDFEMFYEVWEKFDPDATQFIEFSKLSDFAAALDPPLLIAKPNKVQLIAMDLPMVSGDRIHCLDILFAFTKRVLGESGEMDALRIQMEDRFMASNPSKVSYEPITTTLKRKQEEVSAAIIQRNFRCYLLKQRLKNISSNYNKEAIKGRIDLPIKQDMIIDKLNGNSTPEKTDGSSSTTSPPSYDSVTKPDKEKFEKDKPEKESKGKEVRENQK
hNav1.7, sequence (Q15858 whole entry, looked up): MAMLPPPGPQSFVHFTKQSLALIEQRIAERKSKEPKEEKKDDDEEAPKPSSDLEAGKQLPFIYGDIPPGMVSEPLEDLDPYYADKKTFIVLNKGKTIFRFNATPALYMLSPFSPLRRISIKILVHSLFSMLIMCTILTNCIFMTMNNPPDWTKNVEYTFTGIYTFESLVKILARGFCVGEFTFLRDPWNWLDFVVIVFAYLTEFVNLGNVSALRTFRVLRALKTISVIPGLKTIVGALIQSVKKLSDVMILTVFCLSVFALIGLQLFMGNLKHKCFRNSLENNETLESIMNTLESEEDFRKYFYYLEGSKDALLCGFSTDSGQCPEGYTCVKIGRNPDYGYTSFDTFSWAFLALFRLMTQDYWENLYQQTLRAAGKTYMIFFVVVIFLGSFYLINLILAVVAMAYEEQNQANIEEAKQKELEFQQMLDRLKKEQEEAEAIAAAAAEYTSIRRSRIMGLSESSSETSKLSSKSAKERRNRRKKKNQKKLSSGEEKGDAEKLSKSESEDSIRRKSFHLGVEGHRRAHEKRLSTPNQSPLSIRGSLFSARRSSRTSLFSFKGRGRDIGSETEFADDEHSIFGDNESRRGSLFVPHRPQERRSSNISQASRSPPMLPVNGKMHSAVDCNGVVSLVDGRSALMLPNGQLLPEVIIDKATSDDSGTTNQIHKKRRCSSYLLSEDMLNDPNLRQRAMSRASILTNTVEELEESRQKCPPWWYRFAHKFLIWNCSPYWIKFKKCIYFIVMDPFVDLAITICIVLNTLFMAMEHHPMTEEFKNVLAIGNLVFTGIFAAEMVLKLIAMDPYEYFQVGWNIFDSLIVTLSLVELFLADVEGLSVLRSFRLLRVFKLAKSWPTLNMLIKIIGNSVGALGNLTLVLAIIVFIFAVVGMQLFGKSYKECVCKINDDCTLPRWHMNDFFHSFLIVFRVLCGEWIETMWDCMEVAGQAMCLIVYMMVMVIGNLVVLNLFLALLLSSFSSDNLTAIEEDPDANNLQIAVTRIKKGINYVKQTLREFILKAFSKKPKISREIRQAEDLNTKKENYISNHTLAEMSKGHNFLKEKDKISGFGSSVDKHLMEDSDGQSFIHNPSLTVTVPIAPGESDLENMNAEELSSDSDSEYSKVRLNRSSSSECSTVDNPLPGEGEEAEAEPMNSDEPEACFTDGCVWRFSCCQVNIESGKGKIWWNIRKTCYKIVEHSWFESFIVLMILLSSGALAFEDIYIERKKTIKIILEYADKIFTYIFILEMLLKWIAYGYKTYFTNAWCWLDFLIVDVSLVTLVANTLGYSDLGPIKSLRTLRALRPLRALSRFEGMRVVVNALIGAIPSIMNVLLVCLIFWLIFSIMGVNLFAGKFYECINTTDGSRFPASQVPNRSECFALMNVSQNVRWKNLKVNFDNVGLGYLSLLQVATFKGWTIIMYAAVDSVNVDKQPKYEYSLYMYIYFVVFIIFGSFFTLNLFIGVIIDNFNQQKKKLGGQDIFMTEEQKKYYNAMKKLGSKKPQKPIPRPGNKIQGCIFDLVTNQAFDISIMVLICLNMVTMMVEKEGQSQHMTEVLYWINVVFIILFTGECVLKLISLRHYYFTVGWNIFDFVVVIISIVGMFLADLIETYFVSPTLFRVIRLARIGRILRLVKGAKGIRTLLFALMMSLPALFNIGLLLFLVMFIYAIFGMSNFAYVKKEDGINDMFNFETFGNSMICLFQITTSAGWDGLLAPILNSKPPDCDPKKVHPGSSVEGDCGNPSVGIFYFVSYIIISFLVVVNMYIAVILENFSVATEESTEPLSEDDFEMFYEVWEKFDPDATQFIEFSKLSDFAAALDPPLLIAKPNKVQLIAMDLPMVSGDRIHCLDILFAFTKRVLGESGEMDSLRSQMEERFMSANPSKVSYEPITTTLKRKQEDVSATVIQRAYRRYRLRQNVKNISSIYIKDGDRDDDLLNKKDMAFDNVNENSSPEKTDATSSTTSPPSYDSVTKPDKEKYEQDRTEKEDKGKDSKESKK

As for `CC[C@H](C)[C@@H]1NC(=O)[C@@H]2CSSC[C@@H]3NC(=O)[C@H](C(C)C)NC(=O)[C@H](CC(C)C)NC(=O)[C@H](CC(N)=O)NC(=O)[C@@H]4CCCN4C(=O)[C@H](CCCNC(=N)N)NC(=O)[C@H](CSSC[C@H](NC(=O)[C@@H](N)CC(=O)O)C(=O)N[C@@H](CC(C)C)C(=O)NCC(=O)N[C@@H](Cc4ccccc4)C(=O)N[C@@H](CCSC)C(=O)N[C@@H](CCCNC(=N)N)C(=O)N[C@@H](CCCCN)C(=O)N2)NC(=O)[C@H](CSSC[C@@H](C(=O)N[C@@H](CCCCN)C(=O)N[C@@H](Cc2ccc(O)cc2)C(=O)N[C@H](C(=O)N[C@@H](Cc2ccccc2)C(N)=O)C(C)C)NC(=O)[C@H](Cc2c[nH]c4ccccc24)NC(=O)[C@H](CCCCN)NC(=O)[C@H](Cc2c[nH]cn2)NC(=O)[C@H](CC(N)=O)NC(=O)[C@H](CCCNC(=N)N)NC(=O)[C@H](CO)NC3=O)NC(=O)[C@H](CCCCN)NC(=O)[C@H](CC(=O)O)NC(=O)[C@H](CC(N)=O)NC(=O)[C@H](CC(=O)O)NC(=O)[C@@H]2CCCN2C1=O` [compound 342] (H-DCLGFMRKCIPDNDKCCRPNLVCSRNHKWCKYVF-NH2; disulfide 2-17, 9-23, 16-30), the IC50 amounted to 90 nM on hNav1.7 (setting [1]); 6290 nM at hNav1.5 (Table 22, use, […]); 100 nM at hNav1.3 (Table 22, use, […]).
Take `CC[C@H](C)[C@@H]1NC(=O)[C@@H]2CSSC[C@@H]3NC(=O)[C@H](C(C)C)NC(=O)[C@H](CC(C)C)NC(=O)[C@H](CC(N)=O)NC(=O)[C@@H]4CCCN4C(=O)[C@H](CCCNC(=N)N)NC(=O)[C@H](CSSC[C@H](NC(=O)[C@@H](N)CC(=O)O)C(=O)N[C@@H](CC(C)C)C(=O)NCC(=O)N[C@@H](Cc4ccccc4)C(=O)N[C@@H](CCSC)C(=O)N[C@@H](CCCNC(=N)N)C(=O)N[C@@H](CCCCN)C(=O)N2)NC(=O)[C@H](CSSC[C@@H](C(=O)N[C@@H](CCCCN)C(=O)N[C@@H](Cc2ccc(O)cc2)C(=O)N[C@H](C(=O)N[C@@H](Cc2ccccc2)C(N)=O)C(C)C)NC(=O)[C@H](Cc2c[nH]c4ccccc24)NC(=O)[C@H](CCCCN)NC(=O)[C@H](Cc2cnc[nH]2)NC(=O)[C@H]([C@@H](C)O)NC(=O)[C@H](C)NC(=O)[C@H](CO)NC3=O)NC(=O)[C@H](CCCCN)NC(=O)[C@H](CC(=O)O)NC(=O)[C@H](CC(N)=O)NC(=O)[C@H](CC(=O)O)NC(=O)[C@@H]2CCCN2C1=O` [compound 9] (H-DCLGFMRKCIPDNDKCCRPNLVCSATHKWCKYVF-NH2; disulfide 2-17, 9-23, 16-30): the IC50 came out at 300 nM on hNav1.7, 18800 nM on hNav1.5 (Use) and 840 nM at hNav1.3 (Use).
As for `CSCC[C@@H]1NC(=O)[C@H](Cc2ccccc2)NC(=O)CNC(=O)[C@H](CC(C)C)NC(=O)[C@@H](NC(=O)[C@@H](N)CC(=O)O)CSSC[C@@H]2NC(=O)[C@@H]3CSSC[C@@H](C(=O)N[C@@H](CCCCN)C(=O)N[C@@H](Cc4ccc(O)cc4)C(=O)N[C@@H](Cc4cccc5ccccc45)C(=O)N[C@@H](Cc4ccccc4)C(N)=O)NC(=O)[C@H](Cc4c[nH]c5ccccc45)NC(=O)[C@H](CCCCN)NC(=O)[C@H](Cc4c[nH]cn4)NC(=O)[C@H]([C@@H](C)O)NC(=O)[C@H](CCCNC(=N)N)NC(=O)[C@H](CO)NC(=O)[C@H](CSSC[C@H](NC(=O)[C@H](CCCCN)NC(=O)[C@H](CCCNC(=N)N)NC1=O)C(=O)N[C@@H](Cc1cccc4ccccc14)C(=O)N1CCC[C@H]1C(=O)N[C@@H](CC(=O)O)C(=O)N[C@@H](CC(N)=O)C(=O)N[C@@H](CC(=O)O)C(=O)N[C@@H](CCCCN)C(=O)N3)NC(=O)[C@H](C(C)C)NC(=O)[C@H](CC(C)C)NC(=O)[C@H](CC(N)=O)NC(=O)[C@@H]1CCCN1C(=O)[C@H](CCCNC(=N)N)NC2=O` [compound 462], the IC50 on hNav1.7 (setting [2]) was 110 nM; on hNav1.5 (use-dependent block, hNav1.5), more than 5000 nM; at hNav1.3 (use-dependent block, hNav1.3) it was 70 nM.
For `CC[C@H](C)[C@@H]1NC(=O)[C@@H]2CSSC[C@@H]3NC(=O)[C@H](C(C)C)NC(=O)[C@H](CC(C)C)NC(=O)[C@H](CCCCN)NC(=O)[C@@H]4CCCN4C(=O)[C@H](CCCNC(=N)N)NC(=O)[C@H](CSSC[C@H](NC(=O)[C@@H](N)CC(=O)O)C(=O)N[C@@H](CC(C)C)C(=O)NCC(=O)N[C@@H](Cc4ccccc4)C(=O)N[C@@H](CCSC)C(=O)N[C@@H](CCCNC(=N)N)C(=O)N[C@@H](CCCCN)C(=O)N2)NC(=O)[C@H](CSSC[C@@H](C(=O)N[C@@H](CCCCN)C(=O)N[C@@H](Cc2ccc(O)cc2)C(=O)N[C@H](C(=O)N[C@@H](Cc2ccccc2)C(N)=O)C(C)C)NC(=O)[C@H](Cc2c[nH]c4ccccc24)NC(=O)[C@H](CCCCN)NC(=O)[C@H](Cc2cnc[nH]2)NC(=O)[C@H]([C@@H](C)O)NC(=O)[C@H](CCCNC(=N)N)NC(=O)[C@H](CO)NC3=O)NC(=O)[C@H](CCCCN)NC(=O)[C@H](CC(=O)O)NC(=O)[C@H](CC(N)=O)NC(=O)[C@H](CC(=O)O)NC(=O)[C@@H]2CCCN2C1=O` [compound 51] (H-DCLGFMRKCIPDNDKCCRPKLVCSRTHKWCKYVF-NH2; disulfide 2-17, 9-23, 16-30), the IC50 at hNav1.7 (IonWorks Quattro, Use, read-out: IWQ Use Nav1.7) turned out to be 610 nM; on hNav1.5 (Use), 19000 nM; at hNav1.3 (Use), 330 nM.
Turning to `CC[C@H](C)[C@@H]1NC(=O)[C@@H]2CSSC[C@@H]3NC(=O)[C@H](C(C)C)NC(=O)[C@H](CC(C)C)NC(=O)[C@H](CC(N)=O)NC(=O)[C@@H]4CCCN4C(=O)[C@H](CCCNC(=N)N)NC(=O)[C@H](CSSC[C@H](NC(=O)[C@@H](N)CC(=O)O)C(=O)N[C@@H](CC(C)C)C(=O)NCC(=O)N[C@@H](Cc4ccccc4)C(=O)N[C@@H](CCSC)C(=O)N[C@@H](CCCNC(=N)N)C(=O)N[C@@H](CCCCN)C(=O)N2)NC(=O)[C@H](CSSC[C@@H](C(=O)N[C@@H](CCCCN)C(=O)N[C@@H](Cc2ccc(O)cc2)C(=O)N[C@H](C(=O)N[C@@H](Cc2ccccc2)C(N)=O)C(C)C)NC(=O)[C@H](Cc2c[nH]c4ccccc24)NC(=O)[C@H](CCCCN)NC(=O)[C@H](Cc2c[nH]cn2)NC(=O)[C@H](C(C)C)NC(=O)[C@H](CCCNC(=N)N)NC(=O)[C@H](CO)NC3=O)NC(=O)[C@H](CCCCN)NC(=O)[C@H](CC(=O)O)NC(=O)[C@H](CC(N)=O)NC(=O)[C@H](CC(=O)O)NC(=O)[C@@H]2CCCN2C1=O` [compound 344] (H-DCLGFMRKCIPDNDKCCRPNLVCSRVHKWCKYVF-NH2; disulfide 2-17, 9-23, 16-30), the IC50 was 60 nM at hNav1.7 (setting [1]); 8930 nM at hNav1.5 (Table 22, use, […]); 40 nM at hNav1.3 (Table 22, use, […]).
Take `CC[C@H](C)[C@@H]1NC(=O)[C@@H]2CSSC[C@@H]3NC(=O)[C@H](C(C)C)NC(=O)[C@H](CC(C)C)NC(=O)[C@H](CC(N)=O)NC(=O)[C@@H]4CCCN4C(=O)[C@H](CCCNC(=N)N)NC(=O)[C@H](CSSC[C@H](NC(=O)[C@@H](N)CC(=O)O)C(=O)N[C@@H](CC(C)C)C(=O)NCC(=O)NCC(=O)N[C@@H](Cc4ccccc4)C(=O)N[C@@H](CCCNC(=N)N)C(=O)N[C@@H](CCCCN)C(=O)N2)NC(=O)[C@H](CSSC[C@@H](C(=O)N[C@@H](CCCCN)C(=O)N[C@@H](Cc2ccc(O)cc2)C(=O)N[C@H](C(=O)N[C@@H](Cc2ccccc2)C(N)=O)C(C)C)NC(=O)[C@H](Cc2c[nH]c4ccccc24)NC(=O)[C@H](CCC(=O)O)NC(=O)[C@H](Cc2c[nH]cn2)NC(=O)[C@H]([C@@H](C)O)NC(=O)[C@H](CCCNC(=N)N)NC(=O)[C@H](CO)NC3=O)NC(=O)[C@H](CCCCN)NC(=O)[C@H](CC(=O)O)NC(=O)[C@H](CC(N)=O)NC(=O)[C@H](CC(=O)O)NC(=O)[C@@H]2CCCN2C1=O` [compound 755] (H-DCLGGFRKCIPDNDKCCRPNLVCSRTHEWCKYVF-NH2; disulfide 2-17, 9-23, 16-30): the IC50 at hNav1.7 (setting [2]) is more than 5000 nM; on hNav1.5 (use-dependent block, hNav1.5), 15300 nM; on hNav1.3 (use-dependent block, hNav1.3) it was more than 5000 nM.
On to `CC[C@H](C)[C@@H]1NC(=O)[C@@H]2CSSC[C@@H]3NC(=O)[C@H](C(C)C)NC(=O)[C@H](CC(C)C)NC(=O)[C@H](CC(N)=O)NC(=O)[C@@H]4CCCN4C(=O)[C@H](CCCNC(=N)N)NC(=O)[C@H](CSSC[C@H](NC(=O)[C@@H](N)CC(=O)O)C(=O)N[C@@H](CC(C)C)C(=O)NCC(=O)N[C@@H](C)C(=O)N[C@@H](CCSC)C(=O)N[C@@H](CCCNC(=N)N)C(=O)N[C@@H](CCCCN)C(=O)N2)NC(=O)[C@H](CSSC[C@@H](C(=O)N[C@@H](CCCCN)C(=O)N[C@@H](Cc2ccc(O)cc2)C(=O)N[C@H](C(=O)N[C@@H](Cc2ccccc2)C(N)=O)C(C)C)NC(=O)[C@H](Cc2c[nH]c4ccccc24)NC(=O)[C@H](CCCNC(N)=O)NC(=O)[C@H](Cc2c[nH]cn2)NC(=O)[C@H]([C@@H](C)O)NC(=O)[C@H](CCCNC(=N)N)NC(=O)[C@H](CO)NC3=O)NC(=O)[C@H](CCCCN)NC(=O)[C@H](CC(=O)O)NC(=O)[C@H](CC(N)=O)NC(=O)[C@H](CC(=O)O)NC(=O)[C@@H]2CCCN2C1=O` [compound 748] (H-DCLGAMRKCIPDNDKCCRPNLVCSRTH[Cit]WCKYVF-NH2; disulfide 2-17, 9-23, 16-30), for which the IC50 is 870 nM at hNav1.7 (setting [2]); 24200 nM at hNav1.5 (use-dependent block, hNav1.5); 2700 nM at hNav1.3 (use-dependent block, hNav1.3).
